Results published in ChEMBL document CHEMBL1201862, “PubChem BioAssay data set” (2004).
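These data come from cells grown in 96-well plates and exposed to compound for 48 hours at five concentrations. Abbreviation: GI50, concentration required for 50% inhibition of growth.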 Active and inactive are the calls of the source. Rule as the data show it: active = GI50 up to about 1.1 µM and inactive = higher. Where a SMILES comes first, the peptide text is derived from it. The star is where a group is joined. Boc = CC(C)(C)OC(=O)*

Key:
Test in all cases: DTP human tumour cell line panel, 48 h
NCI-H522 = tested on: NCI-H522
A498 = tested on: A498
MDA-MB-435 = tested on: MDA-MB-435
SK-MEL-28 = tested on: SK-MEL-28
MDA-N = tested on: MDA-N
A549 = tested on: A549
HOP-62 = tested on: HOP-62
NCI/ADR-RES = tested on: NCI/ADR-RES
UACC-257 = tested on: UACC-257
HOP-92 = tested on: HOP-92
SNB-19 = tested on: SNB-19
RXF 631 = tested on: RXF 631
NCI-H460 = tested on: NCI-H460
EKVX = tested on: EKVX
HCT-116 = tested on: HCT-116
DU-145 = tested on: DU-145
IGROV-1 = tested on: IGROV-1
HT-29 = tested on: HT-29
786-0 = tested on: 786-0
UO-31 = tested on: UO-31

Measured: GI50

C1CN(c2nnc(N3CCC3)nn2)C1
inactive: NCI-H522 44.4 µM | A498 > 100 µM | MDA-MB-435 18.4 µM | SK-MEL-28 44.5 µM | MDA-N 17.3 µM | A549 > 100 µM | HOP-62 > 85.7 µM | NCI/ADR-RES > 53 µM | UACC-257 22.9 µM | HOP-92 > 100 µM | SNB-19 > 67.9 µM | RXF 631 > 10 µM | NCI-H460 67.9 µM | EKVX > 85.3 µM | HCT-116 84.5 µM | DU-145 > 100 µM | IGROV-1 > 100 µM | HT-29 35.6 µM | 786-0 34.8 µM | UO-31 > 100 µM

COc1ccc2c(c1)[n+]([O-])c(C(N)=O)c(N)[n+]2[O-]
inactive: NCI-H522 17.1 µM | A498 > 100 µM | SK-MEL-28 > 100 µM | A549 > 100 µM | HOP-62 > 100 µM | UACC-257 28.6 µM | HOP-92 > 100 µM | SNB-19 > 100 µM | RXF 631 34 µM | NCI-H460 54.6 µM | EKVX > 100 µM | HCT-116 > 100 µM | IGROV-1 75.7 µM | HT-29 61.9 µM | 786-0 93.1 µM | UO-31 > 100 µM

CC(C)(C)OC(=O)NC(Cc1ccc(O)cc1)C(=O)N1CCCC1C(=O)O (stereo not drawn) (Boc-Tyr-Pro-OH; configuration not given here)
inactive: NCI-H522 > 100 µM | A498 > 100 µM | SK-MEL-28 > 100 µM | A549 > 100 µM | HOP-62 > 100 µM | UACC-257 > 100 µM | HOP-92 > 100 µM | SNB-19 > 100 µM | RXF 631 > 100 µM | NCI-H460 > 100 µM | EKVX > 100 µM | HCT-116 > 100 µM | IGROV-1 > 100 µM | HT-29 > 100 µM | 786-0 > 100 µM | UO-31 > 100 µM

COc1ccc(/C(Cl)=C(\C=O)c2cc(OC)c(OC)c(OC)c2)cc1OC
inactive: NCI-H522 7.38 µM | A498 37.9 µM | MDA-MB-435 48.4 µM | SK-MEL-28 61.8 µM | MDA-N 12.3 µM | A549 33.3 µM | HOP-62 29.5 µM | NCI/ADR-RES 13.2 µM | UACC-257 62.2 µM | HOP-92 49 µM | SNB-19 > 52.6 µM | RXF 631 19.7 µM | NCI-H460 18.5 µM | EKVX 24.7 µM | HCT-116 36.6 µM | DU-145 44.7 µM | IGROV-1 44.5 µM | HT-29 12.8 µM | 786-0 34.4 µM | UO-31 16.8 µM
